# Measured values reported in patent publication US12391726B2, “Ursolic acid morpholine salt” (EMMYON, INC., priority 2017, dated 2025).
# Marks after values point to notes of the source that are not given here.
# What was measured:
# male C57BL/6 mice [1] = assay: Comparative grip strength testing for ursolic acid and salts thereof (standard chow, 6 weeks); type: in vivo; conditions: 6 weeks, mean ± SEM, 12 mice
# From the text: Weight-matched cohorts of 8-week old male C57BL/6 mice were randomized to receive ad libitum access to either standard chow (control) or standard chow supplemented with either 0.050% ursolic acid, 0.200% ursolic acid, or one of the indicated ursolic acid salts: ursolic acid-ethanolamine salt; ursolic acid-tris(hydroxymethyl)aminomethane salt, hereinafter referred to as ursolic acid-“tris” salt; ursolic acid-lysine salt; ursolic acid-diethanolamine salt; ursolic acid-morpholine salt; or ursolic acid-piperazine salt. The ursolic acid-diethanolamine salt and ursolic acid-morpholine salt were prepared as described above. Ursolic acid was commercially obtained, and was used as a starting material to make the other ursolic acid salts according to techniques analogous to those above and known in the art. The doses of ursolic acid salts were molar-matched to either 0.050% ursolic acid (i.e. 0.057% ursolic acid-ethanolamine salt, 0.063% ursolic acid-tris salt, 0.066% ursolic acid-lysine salt, 0.059% ursolic acid-morpholine salt, and 0.059% ursolic acid-piperazine salt) or to 0.048% ursolic acid (i.e. 0.060% ursolic acid-diethanolamine salt). After mice had consumed these diets for 6 weeks, in vivo grip strength was measured.
# male C57BL/6 mice [2] = assay: Direct comparison to molar-matched ursolic acid in obesity-induced glucose intolerance (high-fat chow, 7 weeks); type: in vivo; conditions: 6 h fast, 0.050% ursolic acid or 0.059% morpholine salt, P<0.01
# Procedure: Weight-matched cohorts of 8-week old male C57BL/6 mice were randomized to receive ad libitum access to either high-fat chow supplemented with 0.050% ursolic acid, or high-fat chow supplemented with a molar-matched dose of ursolic acid-morpholine salt (0.059%). After mice had consumed the diets for 7 weeks, mice were fasted for 6 hours and then subjected to glucose tolerance testing. […] Data are means±SEM from 10 mice per cohort.
# C2C12 myotubes = assay: Total cellular protein in cultured C2C12 myotubes (in vitro model of skeletal muscle); type: cell-based; conditions: 48 hours, 10% FBS, normalized to vehicle-treated, dose-dependent
# Procedure: A direct, side-by-side comparison of ursolic acid and ursolic acid-morpholine salt was performed in an in vitro model of skeletal muscle. C2C12 myoblasts were cultured and fully differentiated into post-mitotic skeletal myotubes, then incubated for 48 hours with 10% fetal bovine serum (FBS) plus the indicated concentrations of ursolic acid or ursolic acid-morpholine salt. Myotubes were then harvested for assessment of total cellular protein, which increases as myotubes undergo hypertrophy. (See Dyle et al., Systems-based discovery of tomatidine as a natural small molecule inhibitor of skeletal muscle atrophy, Journal of Biological Chemistry 289, (2014) 14913-14924.) Total protein in each sample was normalized to the amount of in vehicle-treated myotubes. […] Results are shown in FIG. 6, which is a graph depicting results from the direct, side-by-side comparison of ursolic acid and ursolic acid-morpholine salt in the cultured C2C12 myotubes in vitro model of skeletal muscle.
# male C57BL/6 mice [3] = conditions: high-fat chow, 8 weeks, 0.500% Ursolic Acid or 0.059% morpholine salt
# From the text: Weight-matched cohorts of 8-week old male C57BL/6 mice were randomized to receive ad libitum access to either high-fat chow (control), high-fat chow supplemented with 0.050% ursolic acid, or high-fat chow supplemented with a molar-matched dose of ursolic acid-morpholine salt (0.059%). Just prior to starting these diets, mice were weighed and subjected to body composition analysis by NMR. After mice had consumed the diets for 8 weeks, body weight and body composition were re-assessed, retroperitoneal and epididymal fat pads were dissected and weighed, and skeletal muscles (tibialis anterior, gastrocnemius, soleus, quadriceps and triceps) were dissected and weighed. In each mouse, the total dissected skeletal muscle weight (combined weight of bilateral tibialis anterior, gastrocnemius, soleus, quadriceps and triceps muscles) was normalized to the final body weight. Data are means±SEM from 10 mice per cohort.
compound,measurement,setting,value
"C[C@H]1[C@H](C)CC[C@]2(C(=O)O)CC[C@]3(C)C(=CC[C@@H]4[C@@]5(C)CC[C@H](O)C(C)(C)C5CC[C@]43C)[C@H]12 (stereo partly shown) [Ursolic Acid, Ursolic acid]",Grip Strength (% Change vs. Control),"male C57BL/6 mice [1]; standard chow supplemented, doses molar-matched to 0.050% ursolic acid (0.048% for diethanolamine salt): 0.050% ursolic acid, 0.057% ethanolamine, 0.063% tris, 0.066% lysine, 0.060% diethanolamine, 0.059% morpholine, 0.059% piperazine salt",7.7 ± 1.9%
same,Grip Strength (% Change vs. Control),male C57BL/6 mice [1]; standard chow with 0.200% ursolic acid,9.9 ± 2.2 %
same,Fasting blood glucose,male C57BL/6 mice [2],166.3 ± 3.7 mg/dL
same,Glucose tolerance test area under the curve (AUC),male C57BL/6 mice [2],"40,585±1,357"
same,Total cellular protein (FIG. 6),C2C12 myotubes,significantly increased
same,Epididymal Fat Pad Wt,male C57BL/6 mice [3],2208.6 ± 52.0 ^a mg
same,Final % Fat,male C57BL/6 mice [3],39.8 ± 0.7 ^a %
same,Final % Lean,male C57BL/6 mice [3],50.4 ± 0.5 ^a %
same,Final Body Wt,male C57BL/6 mice [3],40.8 ± 0.5 ^a g
same,Final Fat Mass,male C57BL/6 mice [3],16.3 ± 0.3 ^a g
same,Final Lean Mass,male C57BL/6 mice [3],20.6 ± 0.3 ^a g
same,Retroperitoneal Fat Pad Wt,male C57BL/6 mice [3],986.1 ± 21.8 ^a mg
same,Skeletal Muscle Wt (mg/g Final Body Wt),male C57BL/6 mice [3]; total dissected muscle weight normalized to final body weight,25.5 ± 0.4 ^a mg/g Final Body Wt
